Test results as given in patent publication US10857128B2, “Methods and compositions for treating inflammatory diseases” (Helmholtz Zentrum München Deutsches Forschungszentrum für …, priority 2017, dated 2020).
Where two headings read alike, the source gives them in different places.

Key:
Type in all cases: cell-based
[1] = tested on: costimulatory molecules of LPS-stimulated human dendritic cells; assay: Costimulatory molecules on LPS-stimulated human monocyte-derived dendritic cells (flow cytometry); settings: Dendritic cell, 24 h, LPS 0.1 μg/ml, D-amino acid 10 μM, mean ± SD of three experiments, relative to LPS-induced expression
Description: Generation of human monocyte-derived dendritic cells. Peripheral venous blood was obtained from healthy volunteers aged between 20 and 50 years after informed consent. Individuals with allergic disease, acute infection or taking any medication 20 days prior to blood sampling or any history of smoking (personal interview) were excluded prior to blood sampling. All experiments were conducted according to the principles expressed in the Declaration of Helsinki.
(§1) Peripheral blood mononuclear cells (PBMC) were isolated from heparinized whole blood by density gradient centrifugation (2000 rpm, 22° C., 20 min) (Biocoll, Biochrom AG, Berlin, Germany). […] Purity and viability of DCs was assessed by flow cytometry (FIG. 9A-C).
Costimulatory molecules on human DCs. The following primary monoclonal antibodies were used: CD83 fluorescein isothiocyanate (FITC); CD1a phycoerythrin (PE); CD86-FITC; CD80-PE; CD14 allophycocyanine (APC); CD40-APC; CD3-peridinin chlorophyll protein (PerCP); HLA-DR-PerCP; mouse immunoglobulins G1 (IgG1) mouse immunoglobulins G1 (IgG1) κ were used as isotype controls using the corresponding fluorochromes (all purchased from BD Biosciences, Heidelberg, Germany). To account for donor dependent variability of DC surface markers, all data were normalized to the expression induced by LPS which was set to 100% after subtraction of background values (FACS Canto, FACS DIVA software, Version 5.0.3, BD Biosciences, Heidelberg, Germany). Murine DC subsets and CD4^+ T cells. Single cell suspensions of splenocytes were obtained by filtering spleens through a 70 μm strainer. Samples were stained with CD3-PB (1:200, Biolegend, San Diego, USA), CD4-APC-H7 (BD, 1:400), CD11c-APC-Cy7 (1:100), Mhc-II-Percp-Cy5 (1:100), CD11b-FITC (1:100), CD80-AF647, CD40-APC (1:100). For intracellular cytokines, total spleen cells were stimulated with anti-CD3 (4 μg/mL, BD Bioscience, Heidelberg, Germany) and anti-CD28 (30 ng/mL, BD Bioscience, Heidelberg, Germany) for 16 h. 1×10^6 of total lung cells were stimulated for 16 h with MACSiBead particles coated with anti-CD3 and anti-CD28 using the T cell activation/expansion kit (Miltenyi Biotec, Bergisch Gladbach, Germany) in TexMACS medium (Miltenyi Biotec) according to the manufactures recommendations. Prior to staining, cells were treated with monensin (0.7 μL/mL, BD Golgi Stop, BD Bioscience, Heidelberg, Germany) for 6 h at 37° C. and intracellularly stained for II-4-PE (1:100, eBioscience, Vienna, Austria according to the manufacturer's protocols. Intracellular staining for Foxp3 was performed by using the Foxp3/Transcription Factor Staining buffer set (eBiosciences, Vienna, Austria) according to the manufacturer's recommendations.
Bioassays for screening for immune modulatory activity in probiotic supernatants. Two biological assays based on down-modulation of costimulatory molecules on human DCs, and of CCL17-secretion by a human Hodgkin lymphoma T cell line (KM-H2) were set up. Human immature DCs were matured with 0.1 μg/mL lipopolysaccharide (LPS) from E. coli (Sigma-Aldrich, St. Louis, USA) in the presence or absence of 200 μL bacteria free supernatants for 24 h followed by flow cytometric analysis of costimulatory molecules.

human LPS treated DCs = assay: Cytokine secretion of human DCs (multiplex assay); settings: for IFN-g / IL-5 / IL-10 / IL-12: 200 μl supernatant or amino acid 10 μM, 14 h
Description: as §1
[…] For probiotic supernatants, blank CDM1 was used as medium control. […] IL-5, IFN-gamma, IL-12, and IL-10, were quantified by a multiplex assay (Milliplex Human Cytokine Immunoassay, Millipore GMbH Schalbach, Germany) as described by the manufacturer.

[2] = tested on: CCL17 secretion of human Hodgkin lymphoma KM-H2 cells; assay: CCL17 secretion bioassay with KM-H2 cells (ELISA); settings: different concentrations, 24 h
Description: Human T cell line KM-H2. The human Hodgkin lymphoma T cell line (KM-H2) was purchased from the Leibniz Institute DSMZ-German Collection of Microorganisms and Cell Cultures, Braunschweig, Germany. 3-5×10^6 KM-H2 cells were grown in 4 mL RPMI 1640 per well in 6-well-plates (Nunc, Wiesbaden, Germany). All eukaryotic cells were cultured in 5% CO2 at 37° C. (HeraCell 240 and Heraeus BDD 6220, Thermo Fisher Scientific, Waltham, USA). Viability of cells after treatment with bacterial supernatants was assessed by trypan blue, 7-AAD and CellTiter-Blue® staining. (FIG. 9A-C)
Quantification of CCL17 and cytokines in eukaryotic cell culture supernatants. CCL17 was quantified in cell culture supernatants of KM-H2 cells using ELISA reagent Quantikine CCL17/TARC, (R&D Systems, Minneapolis, USA) according to the manufacturer's instructions (ELISA reader MRXII, Thermo Fisher Scientifc, Waltham, USA).
Bioassays for screening for immune modulatory activity in probiotic supernatants. Two biological assays based on down-modulation of costimulatory molecules on human DCs, and of CCL17-secretion by a human Hodgkin lymphoma T cell line (KM-H2) were set up. […]
Similarly, 200 μL supernatants were added to 3-5×10^6 KM-H2 cells for 24 h. Supernatants were collected from KM-H2 by centrifugation and stored at −80° C. until quantification of CCL17. […]

[3] = read-out: Percentage of CD40 expressing mature DCs
[4] = read-out: Percentage of CD80 expressing mature DCs
[5] = read-out: Percentage of CD83 expressing mature DCs
[6] = read-out: Percentage of CD86 expressing mature DCs
[7] = read-out: Percentage of HLA-DR expressing mature DCs

C[C@@H](N)C(=O)O [D-alanine]
activity at 10 µM [1, 3]: 102 ± 3.4% | activity at 10 µM [1, 4]: 98.3 ± 2.6% | activity at 10 µM [1, 5]: 97.7 ± 2.3% | activity at 10 µM [1, 6]: 99.2 ± 2.1% | activity at 10 µM [1, 7]: 98.1 ± 1.1%

N[C@H](Cc1c[nH]cn1)C(=O)O [D-histidine]
activity at 10 µM [1, 3]: 101 ± 3.2% | activity at 10 µM [1, 4]: 102 ± 0.9% | activity at 10 µM [1, 5]: 103.1 ± 0.3% | activity at 10 µM [1, 6]: 102.5 ± 0.4% | activity at 10 µM [1, 7]: 99.9 ± 0.9%

CC[C@@H](C)[C@@H](N)C(=O)O [D-isoleucine]
activity at 10 µM [1, 3]: 100 ± 2.4% | activity at 10 µM [1, 4]: 98.2 ± 1.5% | activity at 10 µM [1, 5]: 100 ± 1.1% | activity at 10 µM [1, 6]: 99.8 ± 1.2% | activity at 10 µM [1, 7]: 100.1 ± 0.3%

CC(C)C[C@@H](N)C(=O)O [D-leucine]
activity at 10 µM [1, 3]: 100 ± 1.7% | activity at 10 µM [1, 4]: 100 ± 1.6% | activity at 10 µM [1, 5]: 97.1 ± 2.4% | activity at 10 µM [1, 6]: 102 ± 1.3% | activity at 10 µM [1, 7]: 98 ± 10%

CSCC[C@@H](N)C(=O)O [D-methionine]
activity at 10 µM [1, 3]: 102.7 ± 0.6% | activity at 10 µM [1, 4]: 100.4 ± 0.2% | activity at 10 µM [1, 5]: 102 ± 2.2% | activity at 10 µM [1, 6]: 102 ± 2.5% | activity at 10 µM [1, 7]: 98.9 ± 2%

N[C@H](Cc1ccccc1)C(=O)O [D-phenylalanine]
activity at 10 µM [1, 3]: 100 ± 2.7% | activity at 10 µM [1, 4]: 92.4 ± 3.5% | activity at 10 µM [1, 5]: 99.6 ± 2% | activity at 10 µM [1, 6]: 99.2 ± 3.3% | activity at 10 µM [1, 7]: 98 ± 3.2%

O=C(O)[C@H]1CCCN1 [D-proline]
activity at 10 µM [1, 3]: 99.2 ± 1.3% | activity at 10 µM [1, 4]: 100.3 ± 0.1% | activity at 10 µM [1, 5]: 100.9 ± 0.4% | activity at 10 µM [1, 6]: 101 ± 1.9% | activity at 10 µM [1, 7]: 98.4 ± 2.6% | Ratio IL-5/IFN-g (human LPS treated DCs; with LPS 0.1 μg/ml): 0.030 | Ratio IL-10/IL-12 (human LPS treated DCs; with LPS 0.1 μg/ml): 0.002 | IFN-g (human LPS treated DCs; with LPS 0.1 μg/ml): 2295.40 pg/mL | IL-5 (human LPS treated DCs; with LPS 0.1 μg/ml): 69.10 pg/mL | IL-10 (human LPS treated DCs; with LPS 0.1 μg/ml): 4.00 pg/mL | IL-12 (human LPS treated DCs; with LPS 0.1 μg/ml): 1911.90 pg/mL | Ratio IL-5/IFN-g (human LPS treated DCs; without LPS): 0.171 | Ratio IL-10/IL-12 (human LPS treated DCs; without LPS): 0.065 | IFN-g (human LPS treated DCs; without LPS): 92.60 pg/mL | IL-5 (human LPS treated DCs; without LPS): 15.80 pg/mL | IL-10 (human LPS treated DCs; without LPS): 5.90 pg/mL | IL-12 (human LPS treated DCs; without LPS): 90.60 pg/mL

N[C@H](CO)C(=O)O [D-serine]
activity at 10 µM [1, 3]: 101 ± 1.1% | activity at 10 µM [1, 4]: 100 ± 2.8% | activity at 10 µM [1, 5]: 100.8 ± 0.3% | activity at 10 µM [1, 6]: 101 ± 2.8% | activity at 10 µM [1, 7]: 98.6 ± 0.6%

C[C@H](O)[C@@H](N)C(=O)O [D-threonine]
activity at 10 µM [1, 3]: 101 ± 1.5% | activity at 10 µM [1, 4]: 100.8 ± 0.4% | activity at 10 µM [1, 5]: 102.6 ± 0.5% | activity at 10 µM [1, 6]: 102.1 ± 0.7% | activity at 10 µM [1, 7]: 97.1 ± 3.9%

N[C@H](Cc1ccc(O)cc1)C(=O)O [D-tyrosin]
activity at 10 µM [1, 3]: 100 ± 1.3% | activity at 10 µM [1, 4]: 101.6 ± 0.4% | activity at 10 µM [1, 5]: 101.6 ± 0.6% | activity at 10 µM [1, 6]: 102.2 ± 0.9% | activity at 10 µM [1, 7]: 98.4 ± 2.4%

CC(C)[C@@H](N)C(=O)O [D-valine]
activity at 10 µM [1, 3]: 101 ± 2.4% | activity at 10 µM [1, 4]: 99.6 ± 2% | activity at 10 µM [1, 5]: 102 ± 1.2% | activity at 10 µM [1, 6]: 101.8 ± 0.9% | activity at 10 µM [1, 7]: 100 ± 1%

O=C(O)[C@@H]1CCCN1 [L-Pro, L-Prolin]
Ratio IL-5/IFN-g (human LPS treated DCs; with LPS 0.1 μg/ml): 0.027 | Ratio IL-10/IL-12 (human LPS treated DCs; with LPS 0.1 μg/ml): 0.003 | IFN-g (human LPS treated DCs; with LPS 0.1 μg/ml): 2133.90 pg/mL | IL-5 (human LPS treated DCs; with LPS 0.1 μg/ml): 57.70 pg/mL | IL-10 (human LPS treated DCs; with LPS 0.1 μg/ml): 6.00 pg/mL | IL-12 (human LPS treated DCs; with LPS 0.1 μg/ml): 1938.00 pg/mL | Ratio IL-5/IFN-g (human LPS treated DCs; without LPS): 0.166 | IFN-g (human LPS treated DCs; without LPS): 88.90 pg/mL | IL-5 (human LPS treated DCs; without LPS): 14.80 pg/mL | IL-12 (human LPS treated DCs; without LPS): 99.80 pg/mL

N[C@@H](Cc1c[nH]c2ccccc12)C(=O)O [L-Trp, L-Tryptophan]
immune activity of synthetic tryptophan isomers in the CCL17 bioassay [2]: inactive | Ratio IL-5/IFN-g (human LPS treated DCs; with LPS 0.1 μg/ml): 0.030 | Ratio IL-10/IL-12 (human LPS treated DCs; with LPS 0.1 μg/ml): 0.002 | IFN-g (human LPS treated DCs; with LPS 0.1 μg/ml): 2031.50 pg/mL | IL-5 (human LPS treated DCs; with LPS 0.1 μg/ml): 61.40 pg/mL | IL-10 (human LPS treated DCs; with LPS 0.1 μg/ml): 4.90 pg/mL | IL-12 (human LPS treated DCs; with LPS 0.1 μg/ml): 1993.00 pg/mL | Ratio IL-5/IFN-g (human LPS treated DCs; without LPS): 0.267 | Ratio IL-10/IL-12 (human LPS treated DCs; without LPS): 0.065 | IFN-g (human LPS treated DCs; without LPS): 45.00 pg/mL | IL-5 (human LPS treated DCs; without LPS): 12.00 pg/mL | IL-10 (human LPS treated DCs; without LPS): 5.70 pg/mL | IL-12 (human LPS treated DCs; without LPS): 88.30 pg/mL
